Data taken from US5098923A, “Aromatase inhibiting 4(5)-imidazoles” (Farmos-Yhtyma Oy, priority 1987, dated 1992).
Where two headings read alike, the source gives them in different places.

How the values were obtained:
human aromatase = target: T1, human aromatase (Homo sapiens, UniProt P11511); experiment: In vitro inhibition of human placental aromatase (3H2O release from 1,2[3H]-androstene-3,17-dione); assay type: biochemical; conditions: for IC10: 40 min, read-out: AROMATASE IC-10; for IC90: read-out: AROMATASE IC-90
T1 construct: The enzyme preparation was used without further purification; from tissue; host or cells: human placenta, microsomal fraction (100000×g precipitate)
T1 sequence (P11511 1-503): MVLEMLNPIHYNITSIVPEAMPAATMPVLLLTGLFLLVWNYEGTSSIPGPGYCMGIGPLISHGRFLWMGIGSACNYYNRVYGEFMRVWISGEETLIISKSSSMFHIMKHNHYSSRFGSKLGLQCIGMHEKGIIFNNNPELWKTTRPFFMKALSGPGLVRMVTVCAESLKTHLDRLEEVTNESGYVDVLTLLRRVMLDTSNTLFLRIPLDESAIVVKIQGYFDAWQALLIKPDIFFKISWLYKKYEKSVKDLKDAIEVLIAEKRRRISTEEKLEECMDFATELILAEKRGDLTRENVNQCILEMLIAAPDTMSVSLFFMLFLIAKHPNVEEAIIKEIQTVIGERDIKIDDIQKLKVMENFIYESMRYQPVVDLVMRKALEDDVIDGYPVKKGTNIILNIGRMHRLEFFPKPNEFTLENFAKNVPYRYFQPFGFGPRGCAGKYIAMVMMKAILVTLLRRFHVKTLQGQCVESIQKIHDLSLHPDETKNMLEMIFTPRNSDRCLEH
Method: Human aromatase enzyme was used. The enzyme was prepared from human placenta, which is rich in the enzyme. Microsomal fraction (100000×g precipitate) was prepared by centrifugation. The enzyme preparation was used without further purification. Test compounds listed in Table 1 were added with 100000 dpm of 1,2[^3 H]-androstene-3,17-dione and NADPH generating system. The concentrations of the test compounds were 0,001; 0,01; 0,1 and 1,0 mM. The incubation was carried out at 37° C. for 40 min. Aromatization of 1,2[^3 H]-androstene-3,17-dione results in the production of ^3 H2 O. The tritiated water and the tritiated substrate are easily separated by a Sep-Pak® minicolumn, which absorbs the steroid but allows free water elution. Radioactivity was counted by a liquid scintillation counter. Aromatase inhibition was evaluated by comparing the ^3 H2 O-radioactivity of inhibitor treated samples to controls containing no inhibitor. IC-10, IC-50 and IC-90 values were calculated as concentrations which inhibited the enzyme activity 10%, 50% and 90%, respectively.

desmolase = experiment: Cholesterol side-chain cleavage (desmolase, P450 scc) inhibition; conditions: read-out: DESMOLASE IC-50; Table 2; 30 min at 37° C.; human placenta or bovine adrenals as enzyme source, table title says human
α2 = conditions: described in EP-194984; cited from earlier work

Row | Compound | IC10 (human aromatase) | IC50 (human aromatase; read-out: AROMATASE IC-50) | IC90 (human aromatase) | other results
1 | c1ccc(Cn2cncc2CCC(c2ccccc2)c2ccccc2)cc1 [Compound 10, 1-benzyl-5-(3,3-diphenylpropyl)-1H-imidazole] | ~0.6 µM | 4 µM | 0.1 mM | 
2 | OC(CCc1c[nH]cn1)(c1ccc(Cl)cc1)c1ccc(Cl)cc1 [Compound 2, 4-[3,3-bis(4-chlorophenyl)-3-hydroxypropyl]-1H-imidazole] | 4 µM | 60 µM | 1 mM | 
3 | Cc1ccc(C(CCc2c[nH]cn2)c2ccccc2)cc1 (centres unmarked) [Compound 24, 4-[3-(4-methylphenyl)-3-phenylpropyl]-1H-imidazole] |  |  |  | IC50 (desmolase): 50 µM
4 | COc1ccc(C(CCc2c[nH]cn2)c2ccc(OC)cc2)cc1 [Compound 22, 4-[3,3-bis(4-methoxyphenyl)propyl]-1H-imidazole] |  |  |  | IC50 (desmolase): 26 µM
5 | Clc1ccc(C(=CCc2c[nH]cn2)c2ccc(Cl)cc2)cc1 [Compound 7] | 2 µM |  | 0.6 mM | IC50 (human aromatase): 35 µM
6 | Fc1ccc(C(CCc2c[nH]cn2)c2ccccc2)cc1 (centres unmarked) [Compound 26, 4-[3-(4-fluorophenyl)-3-phenylpropyl]-1H-imidazole] |  |  |  | IC50 (desmolase): 440 µM
7 | Fc1cccc(C(CCc2c[nH]cn2)c2cccc(F)c2)c1 [Compound 19, 4-[3,3-bis(3-fluorophenyl)propyl]-1H-imidazole] |  |  |  | IC50 (desmolase): 20 µM
8 | Cc1ccccc1C(=CCc1c[nH]cn1)c1ccccc1C [Compound 8] | 1.5 µM |  | > 1 mM | IC50 (human aromatase): 80 µM
9 | OC(CCc1c[nH]cn1)(c1ccccc1)c1ccccc1 [Compound 3, 4-(3,3-diphenyl-3-hydroxypropyl)-1H-imidazole] | 4 µM | 70 µM | 1 mM | 
10 | C(=CC(c1ccccc1)c1ccccc1)c1cncn1Cc1ccccc1 [Compound 28, 1-benzyl-5-(3,3-diphenylpropen-1-yl)-1H-imidazole] |  | 14 µM |  | 
11 | Cc1ccccc1C(O)(CCc1c[nH]cn1)c1ccccc1C [Compound 6, 4-[3,3-bis(2-methylphenyl)-3-hydroxpropyl]-1H-imidazole] | 15 µM |  | > 1 mM | IC50 (human aromatase): 300 µM
12 | COc1cccc(C(CCc2c[nH]cn2)c2cccc(OC)c2)c1 [Compound 13, 4-[3,3-bis(3-methoxyphenyl)propyl]-1H-imidazole] |  | 3 µM |  | 
13 | Cc1ccc(C(CCc2c[nH]cn2)c2ccc(C)cc2)cc1 [Compound 18, 4-[3,3-bis(4-methylphenyl)propyl]-1H-imidazole] |  |  |  | IC50 (desmolase): 48 µM
14 | COc1cccc(C(CCc2cncn2Cc2ccccc2)c2cccc(OC)c2)c1 [Compound 15, 1-benzyl-5-[3,3-bis(3-methoxyphenyl)propyl]-1H-imidazole] |  | 4 µM |  | 
15 | Fc1ccc(C(CCc2c[nH]cn2)c2ccc(F)cc2)cc1 [Compound 27, 4-[3,3-bis(4-fluorophenyl)propyl]-1H-imidazole] |  |  |  | IC50 (desmolase): 30 µM
16 | C(Cc1c[nH]cn1)=C(c1ccccc1)c1ccccc1 [Compound 4] | < 1 µM |  | 0.1 mM | IC50 (human aromatase): 6 µM
17 | c1ccc(C(Cc2c[nH]cn2)c2ccccc2)cc1 [4-(2,2-diphenylethyl)-1H-imidazole] |  |  |  | α2-blocking properties (α2): selective α2 -blocking properties
18 | c1ccc(CCC(CCc2cncn2Cc2ccccc2)c2ccccc2)cc1 (centres unmarked) [Compound 21, 1-benzyl-5-(3,5-diphenylpentyl)-1H-imidazole] |  | 17 µM |  | 
19 | Cc1cccc(C(CCc2c[nH]cn2)c2cccc(C)c2)c1 [Compound 11, 4-[3,3-bis(3-methylphenyl)propyl]-1H-imidazole] |  |  |  | IC50 (desmolase): 29 µM
20 | Cc1cccc(C(CCc2c[nH]cn2)c2cccc(C)c2C)c1C [Compound 14, 4-[3,3-bis(2,3-dimethylphenyl)propyl]-1H-imidazole] |  | 44 µM |  | 
21 | COc1cccc(C(=CCc2cncn2Cc2ccccc2)c2cccc(OC)c2)c1 [Compound 16] |  |  |  | IC50 (human aromatase): 14 µM
22 | Cc1cc(C)cc(C(CCc2c[nH]cn2)c2cc(C)cc(C)c2)c1 [Compound 17, 4-[3,3-bis(3,5-dimethylphenyl)propyl]-1H-imidazole] |  | 130 µM |  | 
23 | C(Cc1cncn1Cc1ccccc1)=C(c1ccccc1)c1ccccc1 [Compound 20] |  |  |  | IC50 (human aromatase): 50 µM
24 | Cc1cccc(C)c1CCC(O)(CCc1c[nH]cn1)CCc1c(C)cccc1C [Compound 1, 4-[5-(2,6-dimethylphenyl)-3-hydroxy-3-(2,6-dimethylphenylethyl)pentyl]-1H-imidazole] | 20 µM | 1000 µM | > 1 mM | 
25 | COc1ccccc1C(CCc1c[nH]cn1)c1ccccc1OC [Compound 25, 4-[3,3-bis(2-methoxyphenyl)propyl]-1H-imidazole] |  | 8.6 µM |  | 
26 | Cc1cccc(C(=CCc2c[nH]cn2)c2cccc(C)c2)c1 [Compound 12] | 1 µM |  | 1 mM | IC50 (human aromatase): 62 µM
